# Experimental data: US20240424111A1, “Degrader Compounds and Uses Thereof” (CALICO LIFE SCIENCES LLC, priority 2021, published 2024)
# Key:
# PTPN2 [1] = molecular target: T1, PTPN2 (Homo sapiens, UniProt P17706); assay: HiBiT PTPN2 degradation in 293T.109 (HiBiT-PTPN2) cells, 24 hours; type: cell-based; settings: 293T.109 cells
# T1 construct: expressed in transfected cells; host or cells: 293T.109 (HiBiT-PTPN2), derived from 293T WT (ATCC)
# T1 sequence (P17706 1-415): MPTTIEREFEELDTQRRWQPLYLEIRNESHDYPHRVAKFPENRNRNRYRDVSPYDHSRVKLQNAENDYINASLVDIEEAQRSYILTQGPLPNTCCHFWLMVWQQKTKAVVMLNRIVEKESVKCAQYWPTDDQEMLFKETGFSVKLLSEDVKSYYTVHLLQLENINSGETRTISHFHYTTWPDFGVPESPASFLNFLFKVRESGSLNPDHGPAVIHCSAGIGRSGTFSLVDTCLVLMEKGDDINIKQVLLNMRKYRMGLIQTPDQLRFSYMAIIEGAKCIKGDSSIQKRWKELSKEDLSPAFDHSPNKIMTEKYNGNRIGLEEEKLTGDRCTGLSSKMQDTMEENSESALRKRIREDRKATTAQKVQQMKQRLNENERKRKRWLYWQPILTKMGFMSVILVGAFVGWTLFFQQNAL
# In short: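 293T cells stably expressing N-terminal HiBiT-tagged PTPN2 were treated for 24 h at 37 °C with compound in an 11-point half-log series from 10 μM top concentration, in duplicate. Remaining HiBiT-PTPN2 was measured by lytic luminescence, with untreated cells as the negative control and wells without lytic reagent as the positive control.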
# PTPN2 [2] = molecular target: T2, PTPN2 (Mus musculus, UniProt Q06180); assay: HiBiT PTPN2 degradation in B16F10.4 cells, 24 hours; type: cell-based
# T2 construct: HiBiT; host or cells: B16F10.4
# T2 sequence (Q06180 1-406): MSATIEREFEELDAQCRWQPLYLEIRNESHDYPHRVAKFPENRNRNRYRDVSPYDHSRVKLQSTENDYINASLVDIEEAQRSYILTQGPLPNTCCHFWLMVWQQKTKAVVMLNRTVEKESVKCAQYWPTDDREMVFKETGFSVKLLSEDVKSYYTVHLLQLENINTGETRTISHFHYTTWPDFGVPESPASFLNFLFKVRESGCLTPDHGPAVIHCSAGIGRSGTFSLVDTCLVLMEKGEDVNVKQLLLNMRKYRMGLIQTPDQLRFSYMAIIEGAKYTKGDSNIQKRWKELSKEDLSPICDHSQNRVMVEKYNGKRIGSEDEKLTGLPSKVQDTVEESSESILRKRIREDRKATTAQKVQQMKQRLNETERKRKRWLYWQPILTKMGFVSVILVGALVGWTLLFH
# In short: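 PTPN2 degradation was measured via luminescence from the Nano-Glo® HiBiT Lytic Assay kit. Compounds were dispensed into 384-well plates at an 11-point half-log titration in duplicate, starting at 10 μM. Cells were added at 5000 per well and held at 37° C. with 5% CO2 for 24 hours. Untreated cells were the negative control and cells without lytic reagent the positive control. Lytic reagents were then added and luminescence read on an EnVision™ Multilabel Reader.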
smiles,measurement,setting,value
C[C@@H](C(=O)Nc1ccc2c(F)c(N3CC(=O)NS3(=O)=O)c(O)cc2c1)C1CCN(c2ccc3c(c2)n(C)c(=O)n3C2CCC(=O)NC2=O)CC1 (stereo partly drawn) [Degrader 106],DC50,PTPN2 [1],150 to 500 nM
same,DC50,PTPN2 [2],150 to 500 nM
Cn1c(=O)n(C2CCC(=O)NC2=O)c2ccc(N3CCN(CNC(=O)Nc4ccc5c(F)c(N6CC(=O)NS6(=O)=O)c(O)cc5c4)CC3)cc21 (stereo not drawn) [Degrader 93],DC50,PTPN2 [1],50 to 150 nM
same,DC50,PTPN2 [2],50 to 150 nM
C[C@@H]1CN(CC(=O)Nc2ccc3c(F)c(N4CC(=O)NS4(=O)=O)c(O)cc3c2)CCN1c1cc2c(cc1F)n(C1CCC(=O)NC1=O)c(=O)n2C (stereo partly drawn) [Degrader 150],DC50,PTPN2 [1],150 to 500 nM
same,DC50,PTPN2 [2],150 to 500 nM
Cn1c(=O)n(C2CCC(=O)NC2=O)c2ccc(-c3ccn(CC(=O)Nc4ccc5c(F)c(N6CC(=O)NS6(=O)=O)c(O)cc5c4)c(=O)c3)cc21 (stereo not drawn) [Degrader 32],DC50,PTPN2 [1],50 to 150 nM
same,DC50,PTPN2 [2],50 to 150 nM
Cn1c(=O)n(C2CCC(=O)NC2=O)c2ccc(-c3ccc([C@@H](CO)C(=O)Nc4ccc5c(F)c(N6CC(=O)NS6(=O)=O)c(O)cc5c4)cc3)cc21 (stereo partly drawn) [Degrader 138],DC50,PTPN2 [1],< 50 nM
same,DC50,PTPN2 [2],< 50 nM
C[C@@H]1CN(CC(=O)Nc2ccc3c(F)c(N4CC(=O)NS4(=O)=O)c(O)cc3c2)CCN1c1ccc2c(c1)n(C)c(=O)n2C1CCC(=O)NC1=O (stereo partly drawn) [Degrader 24],DC50,PTPN2 [1],50 to 150 nM
same,DC50,PTPN2 [2],50 to 150 nM
Cc1cc(CC(=O)Nc2ccc3c(F)c(N4CC(=O)NS4(=O)=O)c(O)cc3c2)ccc1Oc1ccc2c(c1)n(C)c(=O)n2C1CCC(=O)NC1=O (stereo not drawn) [Degrader 81],DC50,PTPN2 [1],50 to 150 nM
same,DC50,PTPN2 [2],50 to 150 nM
Cn1c(=O)n(C2CCC(=O)NC2=O)c2ccc(C3CCN(CC4CC(C(=O)Nc5ccc6c(F)c(N7CC(=O)NS7(=O)=O)c(O)cc6c5)C4)CC3)cc21 (stereo not drawn) [Degrader 6],DC50,PTPN2 [1],< 50 nM
same,DC50,PTPN2 [2],50 to 150 nM
Cc1nn(C2CCC(=O)NC2=O)c2ccc(-c3ccc(CC(=O)Nc4ccc5c(F)c(N6CC(=O)NS6(=O)=O)c(O)cc5c4)cc3)cc12 (stereo not drawn) [Degrader 85],DC50,PTPN2 [1],150 to 500 nM
same,DC50,PTPN2 [2],150 to 500 nM
